Results as given in patent US11370794B2, “Toll-like receptor antagonist compounds and methods of use” (Dynavax Technologies Corporation, priority 2016, dated 2022).
pIC50: −log10 of the molar value. Read-outs that look alike come from different tables or passages of the source.

Key:
[1] = target: T1, human TLR8 (Homo sapiens, UniProt Q9NR97); assay: Inhibition of human TLR8 in human monocytes (TNF-alpha / IL-1 beta ELISA); format: cell-based; details: human monocytes, agonist ORN8L 100 μg/mL, 24 hours
T1 construct: endogenous in cells; host or cells: primary human monocytes (CD14 microbeads) from buffy coats of healthy donors
T1 sequence (Q9NR97 27-1041): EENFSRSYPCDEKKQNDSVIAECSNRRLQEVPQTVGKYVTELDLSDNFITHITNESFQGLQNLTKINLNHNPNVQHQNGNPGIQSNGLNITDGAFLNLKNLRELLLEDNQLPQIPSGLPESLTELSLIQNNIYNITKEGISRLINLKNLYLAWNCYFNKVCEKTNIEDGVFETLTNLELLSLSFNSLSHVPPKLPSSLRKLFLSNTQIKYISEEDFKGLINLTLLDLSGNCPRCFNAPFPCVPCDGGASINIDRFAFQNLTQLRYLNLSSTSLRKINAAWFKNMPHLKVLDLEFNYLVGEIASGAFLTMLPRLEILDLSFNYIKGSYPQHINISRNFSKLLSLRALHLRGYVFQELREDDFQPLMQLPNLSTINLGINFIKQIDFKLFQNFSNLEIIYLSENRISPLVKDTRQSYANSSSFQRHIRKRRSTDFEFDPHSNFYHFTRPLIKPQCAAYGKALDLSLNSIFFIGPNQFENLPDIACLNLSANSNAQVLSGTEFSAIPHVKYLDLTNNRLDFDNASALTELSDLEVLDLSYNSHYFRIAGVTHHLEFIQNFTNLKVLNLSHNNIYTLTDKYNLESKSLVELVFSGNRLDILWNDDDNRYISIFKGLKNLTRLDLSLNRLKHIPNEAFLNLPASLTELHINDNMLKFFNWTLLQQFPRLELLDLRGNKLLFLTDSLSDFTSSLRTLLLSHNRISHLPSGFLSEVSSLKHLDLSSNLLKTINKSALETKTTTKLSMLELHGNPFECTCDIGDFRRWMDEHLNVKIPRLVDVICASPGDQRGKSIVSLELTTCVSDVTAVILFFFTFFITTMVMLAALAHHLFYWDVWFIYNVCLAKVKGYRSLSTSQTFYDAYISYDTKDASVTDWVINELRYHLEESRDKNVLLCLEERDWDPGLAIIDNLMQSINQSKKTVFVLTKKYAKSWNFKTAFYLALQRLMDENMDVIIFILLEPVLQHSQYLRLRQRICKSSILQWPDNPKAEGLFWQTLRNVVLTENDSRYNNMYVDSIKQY
In short: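 Primary human monocytes from donor buffy coats (~200,000 cells/well) given serially diluted compound, then ORN8L RNA oligonucleotide agonist at 100 μg/mL final. After 24 h at 37 °C, supernatant TNF-alpha and/or IL-1 beta measured by ELISA; IC50 from the concentration-response of cytokine release.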

[2] = target: T2, human TLR9 (Homo sapiens, UniProt Q9NR96); assay: Inhibition of human TLR9 in human B cells (IL-6 ELISA); format: cell-based; details: human B cells, agonist 1018 ISS 1 μM, IL-6 readout, 48 hours; range about 0.01 to 10 μM; read-out: Human TLR9 IC50
T2 construct: endogenous in cells; host or cells: primary human B cells (CD19 microbeads) from buffy coats of healthy donors
T2 sequence (Q9NR96 26-1032): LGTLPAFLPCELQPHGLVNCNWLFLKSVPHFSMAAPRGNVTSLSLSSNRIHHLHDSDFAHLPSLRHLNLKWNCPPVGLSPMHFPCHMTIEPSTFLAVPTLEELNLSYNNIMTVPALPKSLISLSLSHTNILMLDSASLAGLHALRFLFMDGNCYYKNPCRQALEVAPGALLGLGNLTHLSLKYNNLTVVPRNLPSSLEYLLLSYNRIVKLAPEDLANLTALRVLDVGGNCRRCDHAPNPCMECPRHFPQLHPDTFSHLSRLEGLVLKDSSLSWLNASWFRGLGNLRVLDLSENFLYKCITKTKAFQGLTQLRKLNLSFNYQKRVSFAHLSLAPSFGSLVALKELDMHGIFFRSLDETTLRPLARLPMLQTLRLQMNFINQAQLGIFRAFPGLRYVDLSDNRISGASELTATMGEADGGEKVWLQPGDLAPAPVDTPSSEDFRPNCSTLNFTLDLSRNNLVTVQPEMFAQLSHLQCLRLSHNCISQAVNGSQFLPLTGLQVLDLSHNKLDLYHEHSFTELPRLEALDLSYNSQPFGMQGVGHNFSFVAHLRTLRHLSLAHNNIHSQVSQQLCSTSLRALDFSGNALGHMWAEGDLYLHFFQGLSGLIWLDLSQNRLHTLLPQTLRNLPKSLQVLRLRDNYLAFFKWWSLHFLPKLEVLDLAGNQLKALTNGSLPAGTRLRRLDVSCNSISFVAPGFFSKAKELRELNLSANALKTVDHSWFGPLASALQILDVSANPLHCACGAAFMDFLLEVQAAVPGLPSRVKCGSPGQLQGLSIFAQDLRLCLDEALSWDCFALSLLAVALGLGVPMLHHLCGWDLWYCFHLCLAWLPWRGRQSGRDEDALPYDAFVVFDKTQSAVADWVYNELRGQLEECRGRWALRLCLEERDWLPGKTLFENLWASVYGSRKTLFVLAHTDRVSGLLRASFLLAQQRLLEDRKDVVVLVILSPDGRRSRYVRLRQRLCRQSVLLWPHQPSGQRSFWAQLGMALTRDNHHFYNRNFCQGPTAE
In short: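 Primary human B cells (CD19-isolated from donor buffy coats), ~300,000 per well, treated with compound (about 0.01–10 μM, some 0.001–30 μM) then 1 μM CpG oligonucleotide 1018 ISS. After 48 hours at 37° C, supernatant IL-6 measured by ELISA; IC50 from concentration-response of TLR9-dependent activity.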

[3] = TNF-alpha readout, read-out: Human TLR8 IC50 TNF-a

Structure (SMILES) | pIC50 [1, 3] | pIC50 [2] | pIC50 ([1]; IL-1 beta readout, read-out: Human TLR8 IC50 IL-1b)
Cc1nnc(N2CCC(C(=O)NCCCN(C)C)CC2)c2nn(-c3cccnc3)c(C)c12 [compound 23, 1-(3,4-dimethyl-2-(pyridin-3-yl)-2H-pyrazolo[3,4-d]pyridazin-7-yl)-N-(3-(dimethylamino)propyl)piperidine-4-carboxamide] | ≤ 4.70 | < 5.00 | 
Cc1nnc(N2CCC(C(=O)NCCCN(C)C)CC2)c2nn(-c3ccsc3)c(C)c12 [compound 24, 1-(3,4-dimethyl-2-(thiophen-3-yl)-2H-pyrazolo[3,4-d]pyridazin-7-yl)-N-(3-(dimethylamino)propyl)piperidine-4-carboxamide] | ≤ 4.70 | 6.40 | 
Cc1nnc(N2CCC(C(=O)NCCCN(C)C)CC2)c2nn(C3CCOCC3)c(C)c12 [compound 25, 1-(3,4-dimethyl-2-(tetrahydro-2H-pyran-4-yl)-2H-pyrazolo[3,4-d]pyridazin-7-yl)-N-(3-(dimethylamino)propyl)piperidine-4-carboxamide] | ≤ 4.70 | < 5.00 | 
Cc1nnc(N2CCC(C(=O)NCCCN(C)C)CC2)c2nn(C(C)C)c(C)c12 [compound 27, N-(3-(dimethylamino)propyl)-1-(2-isopropyl-3,4-dimethyl-2H-pyrazolo[3,4-d]pyridazin-7-yl)piperidine-4-carboxamide] | ≤ 4.70 | < 5.00 | 
Cc1ccc(-n2nc3c(N4CCC(C(=O)NCCCCN(C)C)CC4)nnc(C)c3c2C)cc1 [compound 31, 1-(3,4-dimethyl-2-(p-tolyl)-2H-pyrazolo[3,4-d]pyridazin-7-yl)-N-(4-(dimethylamino)butyl)piperidine-4-carboxamide] | 5.57 | 7.07 | 
Cc1ccc(-n2nc3c(N4CCC(C(=O)NCCCCCN(C)C)CC4)nnc(C)c3c2C)cc1 [compound 32, 1-(3,4-dimethyl-2-(p-tolyl)-2H-pyrazolo[3,4-d]pyridazin-7-yl)-N-(5-(dimethylamino)pentyl)piperidine-4-carboxamide] | < 5.00 | 7.26 | < 5.00
Cc1ccc(-n2nc3c(N4CCC(C(=O)NCCCN(C)C)CC4)nnc(C)c3c2-c2ccccc2)cc1 [compound 34, N-(3-(dimethylamino)propyl)-1-(4-methyl-3-phenyl-2-(p-tolyl)-2H-pyrazolo[3,4-d]pyridazin-7-yl)piperidine-4-carboxamide] | ≤ 4.70 | 6.60 | 
Cc1ccc(-n2nc3c(N4CCC(C(=O)NCCCN(C)C)CC4)nnc(-c4ccccc4)c3c2C)cc1 [compound 35, N-(3-(dimethylamino)propyl)-1-(3-methyl-4-phenyl-2-(p-tolyl)-2H-pyrazolo[3,4-d]pyridazin-7-yl)piperidine-4-carboxamide] | ≤ 4.70 | 5.43 | 
Cc1ccc(-n2nc3c(N4CCC(C(=O)NCCCN(C)C)CC4)nnc(Cl)c3c2C)cc1 [compound 36, 1-(4-chloro-3-methyl-2-(p-tolyl)-2H-pyrazolo[3,4-d]pyridazin-7-yl)-N-(3-(dimethylamino)propyl)piperidine-4-carboxamide] | 5.11 | 5.94 | 
Cc1ccc(-n2nc3c(N4CCC(C(=O)NCCCCCCN(C)C)CC4)nnc(C)c3c2C)cc1 [compound 38, 1-(3,4-dimethyl-2-(p-tolyl)-2H-pyrazolo[3,4-d]pyridazin-7-yl)-N-(6-(dimethylamino)hexyl)piperidine-4-carboxamide] | ≤ 4.70 | 7.40 | 
CCN1CCN(C(=O)C2CCN(c3nncc4cn(-c5ccc(C)cc5)nc34)CC2)CC1 [compound 40, (4-ethylpiperazin-1-yl)(1-(2-(p-tolyl)-2H-pyrazolo[3,4-d]pyridazin-7-yl)piperidin-4-yl)methanone] | 6.65 | 7.59 | 
Cc1ccc(-n2nc3c(N4CCC(C(=O)NCCCN(C)C)CC4)nnc(I)c3c2C)cc1 [compound 41, N-(3-(dimethylamino)propyl)-1-(4-iodo-3-methyl-2-(p-tolyl)-2H-pyrazolo[3,4-d]pyridazin-7-yl)piperidine-4-carboxamide] | ≤ 4.70 | 6.10 | 
